Assay results taken from patent US20090291088A1, “THERAPEUTIC COMBINATIONS OF ANTI-IGF-1R ANTIBODIES AND OTHER COMPOUNDS” (Biogen Idec MA Inc., priority 2008, published 2009).

How the values were obtained:
[1] = system: NSCLC, pancreatic and colon cancer cell lines; assay: Cell viability, M13-C06 and PI-103 alone or combined; format: cell-based; details: PI-103, colon cancer cell lines
Method: Cells were plated at 5000 cells/well in 96-well tissue culture plates in cell culture medium containing 10% fetal bovine serum, then treated with M13-C06 or PI-103 (American Custom Chemicals Corp. cat# 371935-74-9) as single agents or in combination at 1:3 serial dilutions with a starting concentration of 200 nM and 10 microM for M13-C06 and PI-103 respectively. The cell viability was determined three or five days later by measuring ATP levels with CELL TITER GLO™ reagent from Promega.

[2] = system: NSCLC, pancreatic and colon cancer cell lines; assay: Cell viability, M13-C06 and erlotinib alone or combined; format: cell-based
Method: M13-C06 (human IgG4 Pagly anti-IGF-1R antibody) is currently in clinical development for multiple solid tumors. We evaluated the effect of anti-IGF-1R M13-C06 in combination with erlotinib (American Custom Chemicals Corp., cat# 183319-69-9 (San Diego, Calif.)) on the growth (proliferation) of a panel of NSCLC, pancreatic and colon cancer cell lines. Cells were plated at 5000 cells per well in 96-well tissue culture plates in RPMI-1640 (containing 10% fetal bovine serum (FBS, Hyclone cat# Sh30071.03)) and then treated with M13-C06 or erlotinib as single agents or in combination at 1:3 serial dilutions with a starting concentration of 200 nM and 20 microM for M13-C06 and for erlotinib respectively.

[3] = system: AKT and MAPK phosphorylation in NSCLC cell lines; assay: Western blot of AKT and MAPK phosphorylation, M13-C06 and erlotinib; format: cell-based; details: 10 microM erlotinib, 3 hours
Method: We set to determine the molecular mechanisms underlying the observed enhanced anti-tumor effect of combining erlotinib and M13-C06 in NSCLC cell lines. AKT and MAPK activation status was evaluated after treatment with erlotinib and M13-C06 as single agents or in combination, since AKT and MAPK are common downstream signaling targets of IGF-1R and EGFR. Tumor cell lines were plated onto 6-well plates at 1.2×10^6 per well, in RPMI+10% FBS media, and allowed to adhere overnight. The following day, media from wells was removed and replaced with 100 nM M13-C06 or IDEC151 (human IgG4 isotype control antibody) in combination with either media (single agent control) or 10 microM erlotinib in media. Assay plates were incubated in a 37° C., 5% C02 humidified incubator for 3 hours, and cellular proteins were extracted in cell lysis buffer (Cell Signaling Technology, cat# 9803 (Danvers, Mass. USA)). Protein concentrations in lysates were measured using a BCA protein assay kit (Pierce, cat# 23227 (Pierce Biotechnology, Inc., Rockford, Ill.)) and equal amount of proteins were run on a NUPAGE 4-12% Tris-Bis gel, and transferred to a nitrocellulose membrane (0.45 μm pore). Phosphorylation was detected by treatment with antibodies specific for phospho-AKT, total AKT, phospho-MAPK, or total MAPK (Cell Signaling technology, cat #9271, 9272, 9101, 9102), followed by treatment with anti-Rabbit-IgG-HRP (Southern Biotech. cat# 4050-05). Blots were developed with Supersignal Western Substrate Kit (Pierce, cat#34095) and the chemiluminescent image was captured on a BioRad Max2 imager. […] In general, the effects of M13-C06 and erlotinib on downstream signaling molecules AKT and MAPK correlate with their effects on cell growth as shown in FIG. 41.

[4] = system: MiaPaCa2 pancreatic carcinoma cells; assay: MiaPaCa2 pancreatic carcinoma xenograft; format: in vivo, mouse; details: gemcitabine alone, 20 mg/kg, Q4D×3
From the text: Female SCID mice were innoculated in the right flank with 2×10^6 MiaPaCa2 pancreatic carcinoma cells in 50% Matrigel (BD Biosciences)/PBS.

[5] = system: NSCLC, pancreatic, colon cancer and sarcoma cell lines; assay: Cell viability, M13-C06 and rapamycin alone or combined; format: cell-based
Method: For cell growth assays, cells were plated at 5000 cells per well in 96-well tissue culture plates in RPMI-1640 containing 10% fetal bovine serum (for most cell lines) or McCoy's 5A plus 15% FBS (for sarcoma cell lines). Cells were treated with M13-C06 and rapamycin (American Custom Chemicals Corp. cat# 53123-88-9) as a single agent or in combination at 1:3 serial dilutions with a starting concentration of 200 nM for M13-C06 and 100 nM or 1 microM for rapamycin for three or five days. Cell viability was determined by measuring ATP levels with CELL TITER GLO™ reagent.

[6] = system: AKT and S6K signaling in sarcoma and lung tumor cell lines; assay: Western blot of AKT and S6K phosphorylation, M13-C06 and rapamycin; format: cell-based; details: 100 nM rapamycin, 3 hours
Method: It has been reported that rapamycin inhibition of mTOR induces AKT activation through S6K (S6 kinase) and IGF-1R/IRS-1 (Insulin Receptor Substrate-1) dependent feedback loop (O'Reilly, et al., Cancer Research, vol. 66, p. 1500-1508 (2006)). We therefore examined the effect of M13-C06 and rapamycin on AKT and S6K signaling in selected sarcoma and lung tumor cell lines in which M13-C06 enhanced the anti-tumor activity of rapamycin. Cells were plated onto 12 well plates at 6×10^5 per well, in McCoy's 5A medium plus 15% FBS for sarcoma and RPMI-1640 plus 10% FBS for NSCLC cell lines, and allowed to adhere overnight. The following day, media from wells was removed and replaced with 100 nM M13-C06 or IDEC151 in combination with either media (single agent control) or 100 nM rapamycin in media. Assay plates were incubated in a 37° C., 5% CO2 humidified incubator for 3 hours, cells were lysed in Cell Signaling Lysis Buffer (Cell Signal Technologies, #9803), and the lysates were normalized by protein concentration and run on a NUPAGE 4-12% Tris-Bis gel, then transferred to a nitrocellulose membrane. Phosphorylation status of AKT and S6K was detected by treatment with antibodies specific for phospho-AKT, total AKT phospho-S6K, or total S6K (Cell Signaling technology, cat# 2215, 2217), then by treatment with anti-Rabbit-IgG-HRP (Cell Signaling Biotechnology, cat# 7071). […]

Oc1cccc(-c2nc(N3CCOCC3)c3oc4ncccc4c3n2)c1 [PI-103, 3-[4-(4-morpholinyl)pyrido[3′,2′:4,5]furo[3,2-d]pyrimidin-2-yl]-phenol, reference compound]
cell growth [1]: None of the colon cancer cell lines appeared to be sensitive to PI-103 inhibition

C#Cc1cccc(Nc2ncnc3cc(OCCOC)c(OCCOC)cc23)c1 [erlotinib, N-(3-ethynylphenyl)-6,7-bis(2-methoxyethoxy)quinazolin-4-amine, reference compound]
cell growth ([2]; erlotinib single agent, 7 NSCLC cell lines, five days): substantially inhibited the growth of only H322M and H1650 cell lines | cell growth ([2]; erlotinib, 5 colon cancer cell lines): none of 5 colon cancer cell lines showed substantial growth inhibition | phosphorylation of MAPK ([3]; A549 cells): partial inhibition of MAPK phosphorylation | phosphorylation of MAPK ([3]; H322M cells): completely abolished detectable phosphorylation of MAPK | phosphorylation of MAPK ([3]; H1299 and NCI-H23 cells): little effect

Nc1ccn([C@@H]2O[C@H](CO)[C@@H](O)C2(F)F)c(=O)n1 [gemcitabine]
tumor growth [4]: inhibited tumor growth

(16Z,24Z,26Z,28Z)-1,18-dihydroxy-12-[1-(4-hydroxy-3-methoxycyclohexyl)propan-2-yl]-19-methoxy-15,17,21,23,29,35-hexamethyl-30-(5-methylthiophen-2-yl)-11,36-dioxa-4-azatricyclo[30.3.1.0̂ {4,9}]hexatriaconta-16,24,26,28-tetraene-2,3,10,14,20-pentone [rapamycin, reference compound]
cell growth ([5]; rapamycin, colon cancer cell lines): most colon cancer cell line tested did not respond well to rapamycin | cell growth ([5]; single agent, SJSA-1 cells): did not respond | phosphorylation of S6K [6]: inhibited phosphorylation of S6K | AKT phosphorylation ([6]; all cell lines tested): induced AKT phosphorylation in all cell lines tested
